In patent publication US10473647B1, “Peptides for use in treatment and diagnosis of type 1 diabetes” (ImmusanT, Inc., priority 2014, dated 2019):
Non-standard residues stand in square brackets, D forms with d. pGlu = O=C1CC[C@@H](C(=O)O)N1

Assays:
Format in all cases: cell-based, human
undepleted whole blood [1] = assay: Whole blood cytokine assay, IP-10, undepleted blood, number of subjects with >=1.25 fold over medium (Example 2); conditions: 24 h, peptides 20 ug/mL, pools 4 ug/mL, NEX-01/Nexgen POOL 25 uM, CEFT 1 ug/mL
Method: (§1) The depleted blood as well as the remaining undepleted whole blood was then utilized in whole blood cytokine release assays. T-cell cytokine responses were assessed for reactivity to pools of 17mer peptides encompassing all unique 12mer amino-acid sequences derived from pancreatic islet antigens commonly recognized by autoantibodies in T1D: insulin, glutamic decarboxylase-65 (GAD65), and insulinoma-associated antigen (IA)-2 as provided in Table 13A and Table 13B.
(§2) Fresh heparinized blood was incubated with peptide. Concentrations of individual islet-autoantigen peptides were 20 μg/mL and constituent peptides in islet-autoantigen pools were 4 ug/mL. Control MHC class II peptide mix CEFT was used at 1 μg/mL. Gliadin peptide pools were added to whole blood assays at 25 μM. Whole blood assays were incubated for 24 h at 37° C. in 5% CO2. Plasma was separated from blood after centrifugation at 500×g for 10 minutes at room temperature and then transferred to a corresponding well in a “mirror image” sterile 96-well plate. and frozen at −80° C. until use. Multiplex bead-based cytokine assays (MAGPix) were performed according to manufacturer's instructions on thawed plasma. Concentrations of interferon (IFN)-γ-induced protein-10 (IP-10), interleukin (IL)-2 and IFN-γ. Table 14 is a summary of the results for the whole blood cytokine assays which expresses the data in the number of subjects that are positive for ≥1.25 fold production of cytokine over cells incubated with medium only (background).

[2] = system: CD4+ T cell depleted blood; assay: Whole blood cytokine assay, IFNg, CD4+ T cell depleted blood (Example 2); conditions: T1D Subjects (n of 6), 24 h, peptides 20 ug/mL, pools 4 ug/mL, NEX-01/Nexgen POOL 25 uM, CEFT 1 ug/mL
Method: (§3) Depletion of human CD4+ and CD8+ T cells directly from whole blood, using CD4 and CD8 Dynabeads respectively (Dynabeads Human CD4, Life Technologies, #11145D; Dynabeads Human CD8, Life Technologies, #11145D), was done according to the manufacturer's protocol. Briefly, the Dynabeads were resuspended and the desired volume was transferred to a 15 Ml tube. The calculation of the volume of beads added to whole blood was 2×10^6 CD4 beads (25 μL) and 4×10^6 CD8 beads (50 μL) per Ml of whole blood. The beads were first washed with 3 Ml PBS, vortexed and placed on the magnet for 1 minute. Supernatant was discarded and beads were removed from the magnet. Whole blood was then added to the beads at the volume calculated for the concentration of beads in the tubes. The tubes containing whole blood and Dynabeads were then incubated 45 minutes at 4° C. on a continuous rocker.
(§4) Tubes were then placed into the magnet for 2 minutes. The whole blood supernatant was then transferred to a new tube for use in 24-hour Whole Blood Assay or for Flow Cytometric Analysis. Magnetic beads were discarded.
as §1, §2

[3] = system: CD4+ T cell depleted blood; assay: Whole blood cytokine assay, IP-10, CD4+ T cell depleted blood (Example 2); conditions: T1D Subjects (n of 6), 24 h, peptides 20 ug/mL, pools 4 ug/mL, NEX-01/Nexgen POOL 25 uM, CEFT 1 ug/mL
Method: as §3, §4, §1, §2

[4] = system: CD8+ T cell depleted blood; assay: Whole blood cytokine assay, IFNg, CD8+ T cell depleted blood (Example 2); conditions: T1D Subjects (n of 6), 24 h, peptides 20 ug/mL, pools 4 ug/mL, NEX-01/Nexgen POOL 25 uM, CEFT 1 ug/mL
Method: as §3, §4, §1, §2

[5] = system: CD8+ T cell depleted blood; assay: Whole blood cytokine assay, IL-2, CD8+ T cell depleted blood (Example 2); conditions: T1D Subjects (n of 6), 24 h, peptides 20 ug/mL, pools 4 ug/mL, NEX-01/Nexgen POOL 25 uM, CEFT 1 ug/mL
Method: as §3, §4, §1, §2

[6] = system: CD8+ T cell depleted blood; assay: Whole blood cytokine assay, IP-10, CD8+ T cell depleted blood (Example 2); conditions: T1D Subjects (n of 6), 24 h, peptides 20 ug/mL, pools 4 ug/mL, NEX-01/Nexgen POOL 25 uM, CEFT 1 ug/mL
Method: as §3, §4, §1, §2

undepleted whole blood [7] = assay: Whole blood cytokine assay, IFNg, undepleted blood, number of subjects with >=1.25 fold over medium (Example 2); conditions: 24 h, peptides 20 ug/mL, pools 4 ug/mL, NEX-01/Nexgen POOL 25 uM, CEFT 1 ug/mL
Method: as §1, §2

undepleted whole blood [8] = assay: Whole blood cytokine assay, IL-2, undepleted blood, number of subjects with >=1.25 fold over medium (Example 2); conditions: 24 h, peptides 20 ug/mL, pools 4 ug/mL, NEX-01/Nexgen POOL 25 uM, CEFT 1 ug/mL
Method: as §1, §2

[9] = system: whole blood from subjects with T1D and Celiac disease; assay: Whole blood cytokine release assay, IFN-γ (MAGPIX), Example 1; conditions: 10 uM
[10] = system: whole blood from subjects with T1D and Celiac disease; assay: Whole blood cytokine release assay, IL-2 (MAGPIX), Example 1; conditions: 10 uM
[11] = system: whole blood from subjects with T1D and Celiac disease; assay: Whole blood cytokine release assay, IP-10 (MAGPIX), Example 1; conditions: 10 uM
[12] = Healthy Subjects (n of 4), whole blood
[13] = T1D Subjects (n of 6), Undepleted WB
[14] = subject 1, day 0 since oral challenge
[15] = subject 1, day 6 since oral challenge
[16] = subject 2, day 0 since oral challenge
[17] = subject 2, day 6 since oral challenge
[18] = subject 6, day 0 since oral challenge
[19] = subject 6, day 6 since oral challenge
[20] = subject 7, day 0 since oral challenge
[21] = subject 7, day 6 since oral challenge

Substance: 20150-05-W1: peptide tested in Example 2 whole blood cytokine assays (Tables 13A/13B, 14) (REAEDLQVGQVELGGGP)
- Fold Change IP-10, number of subjects positive for ≥1.25 fold production of cytokine over medium only (undepleted whole blood [1]; [12]): 3/4
- Fold Change IP-10, number of subjects positive for ≥1.25 fold production of cytokine over medium only (undepleted whole blood [1]; [13]): 4/6
- Fold Change IFNg, number of subjects positive for ≥1.25 fold production of cytokine over medium only [2]: 1/6
- Fold Change IP-10, number of subjects positive for ≥1.25 fold production of cytokine over medium only [3]: 3/6
- Fold Change IFNg, number of subjects positive for ≥1.25 fold production of cytokine over medium only [4]: 1/6
- Fold Change IL-2, number of subjects positive for ≥1.25 fold production of cytokine over medium only [5]: 1/6
- Fold Change IP-10, number of subjects positive for ≥1.25 fold production of cytokine over medium only [6]: 5/6

Substance: L2P1, 049 (FNQLSTGLDMVGLAADW)
- Fold Change IFNg, number of subjects positive for ≥1.25 fold production of cytokine over medium only [2]: 1/6
- Fold Change IP-10, number of subjects positive for ≥1.25 fold production of cytokine over medium only [3]: 2/6
- Fold Change IP-10, number of subjects positive for ≥1.25 fold production of cytokine over medium only [6]: 2/6

Substance: L3P2, 076 (GRTGTYILIDMVLNRMA)
- Fold Change IFNg, number of subjects positive for ≥1.25 fold production of cytokine over medium only (undepleted whole blood [7]; [12]): 1/4
- Fold Change IFNg, number of subjects positive for ≥1.25 fold production of cytokine over medium only (undepleted whole blood [7]; [13]): 4/6
- Fold Change IL-2, number of subjects positive for ≥1.25 fold production of cytokine over medium only (undepleted whole blood [8]; [12]): 1/4
- Fold Change IL-2, number of subjects positive for ≥1.25 fold production of cytokine over medium only (undepleted whole blood [8]; [13]): 5/6
- Fold Change IP-10, number of subjects positive for ≥1.25 fold production of cytokine over medium only (undepleted whole blood [1]; [12]): 3/4
- Fold Change IP-10, number of subjects positive for ≥1.25 fold production of cytokine over medium only (undepleted whole blood [1]; [13]): 6/6
- Fold Change IP-10, number of subjects positive for ≥1.25 fold production of cytokine over medium only [3]: 3/6
- Fold Change IFNg, number of subjects positive for ≥1.25 fold production of cytokine over medium only [4]: 5/6
- Fold Change IL-2, number of subjects positive for ≥1.25 fold production of cytokine over medium only [5]: 6/6
- Fold Change IP-10, number of subjects positive for ≥1.25 fold production of cytokine over medium only [6]: 5/6

Substance: 20150-11-W1 (NQHLCGSHLVEALYLVC)
- Fold Change IL-2, number of subjects positive for ≥1.25 fold production of cytokine over medium only (undepleted whole blood [8]; [13]): 1/6
- Fold Change IP-10, number of subjects positive for ≥1.25 fold production of cytokine over medium only (undepleted whole blood [1]; [12]): 2/4
- Fold Change IP-10, number of subjects positive for ≥1.25 fold production of cytokine over medium only (undepleted whole blood [1]; [13]): 2/6
- Fold Change IFNg, number of subjects positive for ≥1.25 fold production of cytokine over medium only [2]: 1/6
- Fold Change IFNg, number of subjects positive for ≥1.25 fold production of cytokine over medium only [4]: 1/6
- Fold Change IP-10, number of subjects positive for ≥1.25 fold production of cytokine over medium only [6]: 2/6

Substance: L2P1, 051 (NMFTYEIAPVFVLLEYV)
- Fold Change IL-2, number of subjects positive for ≥1.25 fold production of cytokine over medium only (undepleted whole blood [8]; [13]): 1/6
- Fold Change IP-10, number of subjects positive for ≥1.25 fold production of cytokine over medium only (undepleted whole blood [1]; [12]): 3/4
- Fold Change IP-10, number of subjects positive for ≥1.25 fold production of cytokine over medium only (undepleted whole blood [1]; [13]): 4/6
- Fold Change IFNg, number of subjects positive for ≥1.25 fold production of cytokine over medium only [2]: 1/6
- Fold Change IP-10, number of subjects positive for ≥1.25 fold production of cytokine over medium only [3]: 3/6
- Fold Change IFNg, number of subjects positive for ≥1.25 fold production of cytokine over medium only [4]: 2/6
- Fold Change IL-2, number of subjects positive for ≥1.25 fold production of cytokine over medium only [5]: 2/6
- Fold Change IP-10, number of subjects positive for ≥1.25 fold production of cytokine over medium only [6]: 5/6

Substance: (pE)PEQPIPEQPQPYPQQ-NH2 ([pGlu]PEQPIPEQPQPYPQQ-NH2; SMILES CC[C@H](C)[C@H](NC(=O)[C@@H]1CCCN1C(=O)[C@H](CCC(N)=O)NC(=O)[C@H](CCC(=O)O)NC(=O)[C@@H]1CCCN1C(=O)[C@@H]1CCC(=O)N1)C(=O)N1CCC[C@H]1C(=O)N[C@@H](CCC(=O)O)C(=O)N[C@@H](CCC(N)=O)C(=O)N1CCC[C@H]1C(=O)N[C@@H](CCC(N)=O)C(=O)N1CCC[C@H]1C(=O)N[C@@H](Cc1ccc(O)cc1)C(=O)N1CCC[C@H]1C(=O)N[C@@H](CCC(N)=O)C(=O)N[C@@H](CCC(N)=O)C(N)=O) [SEQ ID NO: 42, gluten peptide, reference compound]
- Whole blood IFNg release [9, 14]: 42 pg/mL
- Whole blood IFNg release, fold-change over medium only [9, 14]: 0.76
- Whole blood IFNg release [9, 15]: 72 pg/mL
- Whole blood IFNg release, fold-change over medium only [9, 15]: 1.09
- Whole blood IFNg release [9, 16]: 3.3 pg/mL
- Whole blood IFNg release, fold-change over medium only [9, 16]: 0.85
- Whole blood IFNg release [9, 17]: 8.6 pg/mL
- Whole blood IFNg release, fold-change over medium only [9, 17]: 1.77
- Whole blood IFNg release [9, 18]: 96 pg/mL
- Whole blood IFNg release, fold-change over medium only [9, 18]: 0.99
- Whole blood IFNg release [9, 19]: 278 pg/mL
- Whole blood IFNg release, fold-change over medium only [9, 19]: 2.84
- Whole blood IFNg release [9, 20]: 170 pg/mL
- Whole blood IFNg release, fold-change over medium only [9, 20]: 0.71
- Whole blood IFNg release [9, 21]: 102 pg/mL
- Whole blood IFNg release, fold-change over medium only [9, 21]: 0.68
- Whole blood IL-2 release [10, 14]: 3.2 pg/mL
- Whole blood IL-2 release, fold-change over medium only [10, 14]: 1.00
- Whole blood IL-2 release [10, 15]: 3.2 pg/mL
- Whole blood IL-2 release, fold-change over medium only [10, 15]: 1.00
- Whole blood IL-2 release [10, 16]: 3.2 pg/mL
- Whole blood IL-2 release, fold-change over medium only [10, 16]: 1.00
- Whole blood IL-2 release [10, 17]: 22.4 pg/mL
- Whole blood IL-2 release, fold-change over medium only [10, 17]: 7.00
- Whole blood IL-2 release [10, 18]: 23.3 pg/mL
- Whole blood IL-2 release, fold-change over medium only [10, 18]: 4.71
- Whole blood IL-2 release [10, 19]: 134.3 pg/mL
- Whole blood IL-2 release, fold-change over medium only [10, 19]: 31.67
- Whole blood IL-2 release [10, 20]: 106.1 pg/mL
- Whole blood IL-2 release, fold-change over medium only [10, 20]: 1.69
- Whole blood IL-2 release [10, 21]: 27.8 pg/mL
- Whole blood IL-2 release, fold-change over medium only [10, 21]: 0.66
- Whole blood IP-10 release [11, 14]: 235 pg/mL
- Whole blood IP-10 release, fold-change over medium only [11, 14]: 0.89
- Whole blood IP-10 release [11, 15]: 325 pg/mL
- Whole blood IP-10 release, fold-change over medium only [11, 15]: 0.97
- Whole blood IP-10 release [11, 16]: 336 pg/mL
- Whole blood IP-10 release, fold-change over medium only [11, 16]: 1.26
- Whole blood IP-10 release [11, 17]: 1269 pg/mL
- Whole blood IP-10 release, fold-change over medium only [11, 17]: 4.06
- Whole blood IP-10 release [11, 18]: 3409 pg/mL
- Whole blood IP-10 release, fold-change over medium only [11, 18]: 12.30
- Whole blood IP-10 release [11, 19]: 10000 pg/mL
- Whole blood IP-10 release, fold-change over medium only [11, 19]: 49.76
- Whole blood IP-10 release [11, 20]: 713 pg/mL
- Whole blood IP-10 release, fold-change over medium only [11, 20]: 0.96
- Whole blood IP-10 release [11, 21]: 2549 pg/mL
- Whole blood IP-10 release, fold-change over medium only [11, 21]: 2.86
